This note sets out measurements from patent US6943253B2, “6-phenylpyrrolopyrimidinedione derivatives” (Almirall Prodesfarma S.A., priority 2000, dated 2005).

One may read the IC50 as the concentration that gives 50% inhibition.

This experiment addresses T1, cyclic GMP specific phosphodiesterase (PDE 5) (Homo sapiens, UniProt O76074).
T1 construct: isolated from human platelet lysates by ion exchange chromatography using a Mono-Q column; from tissue; host or cells: human platelets (lysate, Mono-Q ion exchange fraction)
Description: PDE 5 inhibitory activity, enzyme isolated from human platelet lysates. In kind it is biochemical. The note with it: PDE 5 from human platelet lysates; 0.25 mM [3H]-cyclic GMP as substrate; read-out: IC50 PDE5. The procedure: The cyclic GMP specific phosphodiesterase (PDE 5) was isolated from human platelet lysates by ion exchange chromatography using a Mono-Q column. The enzyme activity was determined using 0.25 mM [3H]-cyclic GMP as substrate. The purification of the enzyme and the assessment of the PDE 5 inhibitory activity of our compounds were performed essentially as described by R. W. Gristwood et al., Br. J. Pharmacol. 1992, 105:985-991.

Turning to `CCCOc1ccc(S(=O)(=O)N2CCN(C)CC2)cc1-c1cc2c([nH]1)c(=O)n(C)c(=O)n2CCC` [Example 12, 3-Methyl-6-[5-(4-methylpiperazine-1-sulphonyl)-2-propoxyphenyl]-1-propyl-1,5-dihydropyrrolo[3,2-d]pyrimidine-2,4-dione], the IC50 is 14 nM.

For the compound `CCCOc1ccc(S(=O)(=O)N2CCN(CC)CC2)cc1-c1cc2c([nH]1)c(=O)n(C)c(=O)n2CCC` [Example 13, 6-[5-(4-Ethylpiperazine-1-sulphonyl)-2-propoxyphenyl]-3-methyl-1-propyl-1,5-dihydropyrrolo[3,2-d]pyrimidine-2,4-dione], the IC50 was 8 nM.

Turning to `CCCn1c(=O)n(C)c(=O)c2[nH]c(-c3cc(S(=O)(=O)N4CCN(C)CC4)ccc3OCC)c(Cl)c21` [Example 27, 7-Chloro-6-[2-ethoxy-5-(4-methylpiperazine-1-sulfonyl)phenyl]-3-methyl-1-propyl-1,5-dihydropyrrolo[3,2-d]pyrimidine-2,4-dione], the IC50 was 3.4 nM.

On to `CCCOc1ccc(S(=O)(=O)N2CCN(C)CC2)cc1-c1[nH]c2c(=O)n(C)c(=O)n(CCC)c2c1Cl` [Example 33, 7-Chloro-3-methyl-6-[5-(4-methylpiperazine-1-sulfonyl)-2-propoxyphenyl]-1-propyl-1,5-dihydropyrrolo[3,2-d]pyrimidine-2,4-dione], for which the IC50 was found to be 4.2 nM.

As to `CCCOc1ccc(S(=O)(=O)N2CCN(CC)CC2)cc1-c1[nH]c2c(=O)n(C)c(=O)n(CCC)c2c1Cl` [Example 34, 7-Chloro-6-[5-(4-ethylpiperazine-1-sulfonyl)-2-propoxyphenyl]-3-methyl-1-propyl-1,5-dihydropyrrolo[3,2-d]pyrimidine-2,4-dione], the IC50 is 3.6 nM.

Take `CCCOc1ccc(S(=O)(=O)N2CCN(CCO)CC2)cc1-c1[nH]c2c(=O)n(C)c(=O)n(CCC)c2c1Cl` [Example 35, 7-Chloro-6-{5-[4-(2-hydroxyethyl)piperazine-1-sulfonyl]-2-propoxyphenyl}-3-methyl-1-propyl-1,5-dihydropyrrolo[3,2-d]pyrimidine-2,4-dione]: the IC50 was 3.4 nM.

`CCCn1c(=O)n(C)c(=O)c2[nH]c(-c3cc(S(=O)(=O)N4CCN(CCCO)CC4)ccc3OCC)c(Br)c21` [Example 47, 7-Bromo-6-{2-ethoxy-5-[4-(3-hydroxypropyl)piperazine-1-sulfonyl]phenyl}-3-methyl-1-propyl-1,5-dihydropyrrolo[3,2-d]pyrimidine-2,4-dione]: the IC50 came to 9.2 nM.

Regarding `CCCOc1ccc(S(=O)(=O)N2CCN(C)CC2)cc1-c1[nH]c2c(=O)n(C)c(=O)n(CCC)c2c1Br` [Example 50, 7-Bromo-3-methyl-6-[5-(4-methylpiperazine-1-sulfonyl)-2-propoxyphenyl]-1-propyl-1,5-dihydropyrrolo[3,2-d]pyrimidine-2,4-dione], the IC50 was 4.5 nM.

On to `CCCOc1ccc(S(=O)(=O)N2CCN(CCO)CC2)cc1-c1[nH]c2c(=O)n(C)c(=O)n(CCC)c2c1Br` [Example 55, 7-Bromo-6-{5-[4-(2-hydroxyethyl)piperazine-1-sulfonyl]-2-propoxyphenyl}-3-methyl-1-propyl-1,5-dihydropyrrolo[3,2-d]pyrimidine-2,4-dione], for which the IC50 was found to be 6.6 nM.

`CCCOc1ccc(S(=O)(=O)N2CCN(CCCO)CC2)cc1-c1[nH]c2c(=O)n(C)c(=O)n(CCC)c2c1Br` [Example 57, 7-Bromo-6-{5-[4-(3-hydroxypropyl)piperazine-1-sulfonyl]-2-propoxyphenyl}-3-methyl-1-propyl-1,5-dihydropyrrolo[3,2-d]pyrimidine-2,4-dione]: the IC50 turned out to be 4 nM.
